Values quoted from earlier work, collected in article PMC3762478 (Bioorganic & medicinal chemistry letters, 2013).
Like-named read-outs stand apart in the source and are kept apart here.

Columns and labels:
−1 receptor (sigma-1) [1] = conditions: guinea-pig brain membranes
−1 receptor (sigma-1) [2] = conditions: rat brain homogenates

Compound | selectivity over −2 receptor (−1 receptor (sigma-1) [1]) | Ki (−1 receptor (sigma-1) [1]; read-out: Ki for −1 receptor) [nM] | selectivity over −2 receptor (−1 receptor (sigma-1) [2]) | Ki (−1 receptor (sigma-1) [2]; read-out: Ki for −1 receptor) [nM]
CCCc1ccc2c(c1)sc(=O)n2CCN1CCCCCC1 [Compound 1] | over 1000 fold | 0.56 | – | –
O=c1sc2cc(CCCF)ccc2n1CCN1CCCCCC1 [Compound 2] | – | – | > 100,000 fold | 0.0025
